Laboratory results: the RepoRT retention time repository

Assay: RP, Waters ACQUITY Premier BEH C18, 100 × 2.1 mm, 1.7 µm, 40 °C, 0.3 to 0.4 mL/min, estimated dead time 0.73 min; A: water + 0.1% formic acid; B: acetonitrile + 0.1% formic acid; gradient (min/%B) 0/0.5 0.1/0.5 10/80 10.1/99.5 12/0.5 12.1/0.5 14.5/0.5
Settings: stereoisomer not certain

Row | SMILES | LC retention time [min]
1 | CC(O)CCCC(=O)O (stereo not drawn) [5-HYDROXYHEXANOIC ACID] | 3.96
2 | O=C(O)Cc1c[nH]c2ccc(O)cc12 [5-HYDROXYINDOLEACETATE] | 4.41
3 | NC(Cc1c[nH]c2ccc(O)cc12)C(=O)O (stereo not drawn) [5-HYDROXYTRYPTOPHAN] | 3.46
4 | COc1ccc(O)c(C(=O)O)c1 [5-METHOXYSALICYLIC ACID] | 5.46
5 | COc1ccc2[nH]cc(CCN)c2c1 [5-METHOXYTRYPTAMINE] | 3.73
6 | Cc1cn(C2OC(CO)C(O)C2O)c(=O)nc1N (stereo not drawn) [5-METHYLCYTIDINE] | 2.36
7 | Cc1cnc(=O)[nH]c1N [5-METHYLCYTOSINE] | 0.94
8 | O=C(O)CCCCc1ccccc1 [5-PHENYLVALERIC ACID] | 7.21
9 | O=C1CCCCO1 [5-VALEROLACTONE] | 4.9
10 | O=C(O)CCCCCC(=O)O [6-CARBOXYHEXANOATE] | 4.46
11 | NCCc1cc(O)c(O)cc1O [6-HYDROXYDOPAMINE] | 1.31
12 | O=C1CCCC(C(=O)O)N1 (stereo not drawn) [6-OXOPIPERIDINE-2-CARBOXYLIC ACID] | 1.34
13 | CC1CCC2(C(=O)O)CCC3(C)C(=CCC4C5(C)CC(O)C(O)C(C)(CO)C5C(O)CC43C)C2C1C (stereo not drawn) [6BETA-HYDROXYASIATIC ACID] | 7.04
14 | CC(O)CCCCCC(=O)O (stereo not drawn) [7-HYDROXYOCTANOIC ACID] | 4.96
15 | CC(CCC(=O)O)C1CCC2C3C(=O)CC4CC(O)CCC4(C)C3CC(O)C12C (stereo not drawn) [7-KETODEOXYCHOLATE] | 6.88
16 | Cn1cnc2[nH]c(=O)[nH]c(=O)c21 [7-METHYLXANTHINE] | 1.2
17 | O=C(O)CCCCCCCO [8-HYDROXYOCTANOATE] | 5.04
18 | O=C(O)CCCCCCCCCO [10-HYDROXYDECANOATE] | 6.11
19 | CCCCCC(O)C(O)CC=CCCCCCCCC(=O)O (stereo not drawn) [12,13-DIHOME] | 7.5
20 | CCCCCCC(O)CCCCCCCCCCC(=O)O (stereo not drawn) [12-HYDROXYSTEARIC ACID] | 8.29
21 | O=C(O)CCCCCCCCCCCCCCCO [16-HYDROXY HEXADECANOIC ACID] | 7.82

Row | SMILES | LC retention time [min]
22 | Cc1cc2c(C(C)C)c(O)c(O)c(C=O)c2c(O)c1-c1c(C)cc2c(C(C)C)c(O)c(O)c(C=O)c2c1O [(-)-GOSSYPOL] | 8.49
23 | O=C(OC1Cc2c(O)cc(O)cc2OC1c1ccc(O)c(O)c1)c1cc(O)c(O)c(O)c1 (stereo not drawn) [(?)-EPICATECHIN GALLATE] | 4.47
24 | CCCCCCC[C@@H](O)CC(=O)O [(R)-3-HYDROXYDECANOIC ACID] | 7.09
25 | CC1(C)C=Cc2c(ccc3c2OCC(c2ccc(O)cc2O)C3)O1 [(R)-GLABRIDIN] | 7.48
26 | O=C(O)CCCCC1CCSS1 [(R)-LIPOIC ACID] | 6.93
27 | CC(=O)C(C)O (stereo not drawn) [ACETOIN] | 3.5
28 | CC(=O)OCC[N+](C)(C)C [ACETYLCHOLINE] | 0.961
29 | CC1OC(OC2C(O)C(OCCc3ccc(O)c(O)c3)OC(CO)C2OC(=O)C=Cc2ccc(O)c(O)c2)C(O)C(O)C1O (stereo not drawn) [ACTEOSIDE] | 4.38
30 | Nc1ncnc2nc[nH]c12 [ADENINE] | 1.3
31 | Nc1ncnc2c1ncn2C1OC(CO)C2OP(=O)(O)OC21 (stereo not drawn) [ADENOSINE 2',3'-CYCLIC PHOSPHATE] | 2.8
32 | Nc1ncnc2c1ncn2C1OC(COP(=O)(O)O)C(OP(=O)(O)O)C1O (stereo not drawn) [ADENOSINE 3',5'-DIPHOSPHATE] | 1.11
33 | Nc1ncnc2c1ncn2C1OC(COP(=O)([O-])OP(=O)([O-])OCC2OC(O)C(O)C2O)C(O)C1O (stereo not drawn) [ADENOSINE DIPHOSPHATE RIBOSE] | 0.954
34 | Nc1ncnc2c1ncn2C1OC(COP(=O)(O)OS(=O)(=O)O)C(O)C1O (stereo not drawn) [ADENOSINE PHOSPHOSULFATE] | 1.22
35 | Nc1ncnc2c1ncn2C1OC(COP(=O)(O)O)C(O)C1O (stereo not drawn) [ADENOSINE-MONOPHOSPHATE] | 1.35
36 | Nc1ncnc2c1ncn2C1OC(CO)C(O)C1O (stereo not drawn) [ADENOSINE] | 3.28
37 | O=C(O)CCCCC(=O)O [ADIPATE] | 3.99
38 | Nc1ncnc2c1ncn2C1OC(COP(=O)(O)OP(=O)(O)OC2OC(CO)C(O)C(O)C2O)C(O)C1O (stereo not drawn) [ADP-GLUCOSE] | 1.16
39 | O=c1ccc2cc(OC3OC(CO)C(O)C(O)C3O)c(O)cc2o1 (stereo not drawn) [AESCULIN] | 3.14
40 | O=C(OCC1=CC(O)C2C=COC(OC3OC(CO)C(O)C(O)C3O)C12)c1ccc(O)cc1 (stereo not drawn) [AGNUSIDE] | 4.2
41 | NC(=O)c1ncn(C2OC(CO)C(O)C2O)c1N (stereo not drawn) [AICA-RIBOSIDE] | 0.945
42 | NC(=O)c1ncn(C2OC(COP(=O)(O)O)C(O)C2O)c1N (stereo not drawn) [AICAR] | 1.28

Row | SMILES | LC retention time [min]
43 | O=C1c2c(O)cccc2C(C2OC(CO)C(O)C(O)C2O)c2cc(CO)cc(O)c21 (stereo not drawn) [ALOIN] | 5.1
44 | COc1c(O)cc2oc3cc(O)c(CC=C(C)C)c(O)c3c(=O)c2c1CC=C(C)C [ALPHA-MANGOSTIN] | 8.32
45 | O=c1cc(-c2ccc(O)c(-c3c(O)cc(O)c4c(=O)cc(-c5ccc(O)cc5)oc34)c2)oc2cc(O)cc(O)c12 [AMENTOFLAVONE] | 6.35
46 | NC(CCCC(=O)O)C(=O)O (stereo not drawn) [AMINOADIPATE] | 0.943
47 | N#CC(OC1OC(COC2OC(CO)C(O)C(O)C2O)C(O)C(O)C1O)c1ccccc1 (stereo not drawn) [AMYGDALIN] | 3.78
48 | O=c1ccc2ccc3occc3c2o1 [ANGELICIN] | 6.41
49 | Nc1ccccc1S(=O)(=O)O [ANILINE-2-SULFONATE] | 2.54
50 | O=c1cc(-c2ccc(O)cc2)oc2cc(O)cc(O)c12 [APIGENIN] | 6.02
51 | CCCCCC=CCC=CCC=CCC=CCCCC(=O)O [ARACHIDONIC ACID] | 9
52 | OCC1OC(Oc2ccc(O)cc2)C(O)C(O)C1O (stereo not drawn) [ARBUTIN] | 1.12
53 | COc1cc(CC2C(=O)OCC2Cc2ccc(OC)c(OC)c2)ccc1O (stereo not drawn) [ARCTIGENIN] | 6.63
54 | COC(=O)C1=CCCN(C)C1 [ARECOLINE] | 1.02
55 | CC1CCC2(C(=O)O)CCC3(C)C(=CCC4C5(C)CC(O)C(O)C(C)(CO)C5CCC43C)C2C1C (stereo not drawn) [ASIATIC ACID] | 7.17
56 | O=C(O)CCCCCCCC(=O)O [AZELATE] | 5.52
57 | O=C(O)C1OC(Oc2cc3oc(-c4ccccc4)cc(=O)c3c(O)c2O)C(O)C(O)C1O (stereo not drawn) [BAICALIN] | 5.17
58 | O=C(O)c1ccccc1 [BENZOATE] | 4.51
59 | COc1c2ccoc2cc2oc(=O)ccc12 [BERGAPTEN] | 6.74
60 | NC(=O)c1ccc[n+](C2OC(COP(=O)(O)OP(=O)(O)OCC3OC(n4cnc5c(N)ncnc54)C(O)C3O)C(O)C2O)c1 (stereo not drawn) [BETA-NICOTINAMIDE ADENINE DINUCLEOTIDE] | 2.13
61 | CC(C)(C)C1(O)CC2OC(=O)CC23C(=O)OC2OC(=O)C(O)C231 (stereo not drawn) [BILOBALIDE] | 4.91
62 | COc1ccc(-c2coc3cc(O)cc(O)c3c2=O)cc1 [BIOCHANIN A] | 7.15
63 | O=C(O)CCCCC1SCC2NC(=O)NC21 (stereo not drawn) [BIOTIN] | 4.59
